Measurements published in patent publication US20150328329A1, “LIGANDS THAT TARGET HCV-E2 BINDING SITES ON CD81 AND THERAPEUTIC METHODS USING THEM” (American University of Cairo, priority 2012, published 2015).

Tests used:
[1] = target: T1, native CD81 on Raji cells (Homo sapiens, UniProt P60033); test: Competition assay: inhibition of FITC-labeled JS-81 anti-CD81 antibody binding to native CD81 on live Raji cells (flow cytometry); assay type: cell-based
T1 construct: endogenous in cells; host or cells: Raji (human B cell line)
T1 sequence (P60033 1-236): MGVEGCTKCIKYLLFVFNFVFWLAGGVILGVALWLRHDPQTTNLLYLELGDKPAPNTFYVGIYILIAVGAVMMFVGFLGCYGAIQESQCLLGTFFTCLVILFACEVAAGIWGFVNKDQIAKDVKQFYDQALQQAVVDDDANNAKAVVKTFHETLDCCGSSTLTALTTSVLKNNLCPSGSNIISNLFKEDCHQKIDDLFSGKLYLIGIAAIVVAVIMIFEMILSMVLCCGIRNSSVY
Text: A subset of these ligands and some of those listed in the patent have been tested to identify those ligands that bind to the correct region of the CD81 protein and for binding to native CD81 on living cells (a Raji cell line). This assay tests three concentrations of the ligand to determine if the ligand is capable of inhibiting the binding of an antibody called JS-81. This antibody is known to bind to the region of the CD81 protein we have targeted. If the ligand decreases JS-81 binding as you increase the concentration of the ligand, it is 1) binding to native CD81 on the Raji cells and 2) it is binding to the correct region of the protein.
For antibody neutralization assay Raji cells were used, a human B cell line that expressed high amounts of CD81 on the surface (data not shown). Cells were grown in RPMI medium (10% FCS, 1% penicillin/streptomycin, 1% L-glutamine, 1% non-essential amino acids, 1% sodium pyruvate, pH 7.4, at 37° C. with 5% CO2). 2×10^5 cells were incubated with or without different concentrations (50 μM, 100 μM, 400 μM and 1 mM) of indicated inhibitor for 20 min at room temperature, subsequently 1 ul (16 ng/μl) of FITC-labeled anti CD81 antibody (BD Pharmingen, 551108) was added to the cells and incubated for 20 min (antibody titration was performed to obtain a working dilution range, data not shown). Cells were washed and analyzed by flow cytometry using fluorescence-activated cell sorting (FACS) (BD FACSCalibur, software: Cell Quest Pro). Mean Fluorescence Intensity MFI was calculated using Flowjo software (TreesStar, www.flowjo.com).

recombinant CD81-LEL = target: T2, recombinant CD81-LEL (Homo sapiens, UniProt P60033); test: Dual polarization interferometry (DPI) binding of ligands to immobilized recombinant CD81-LEL; settings: for DPI Binding Response (Radians), molecule added alone to CD81: Table D, single molecule added to CD81
T2 construct: the large extracellular loop of CD81 (CD81-LEL); GST; His; Shoshana Levy Lab, Stanford (gift)
T2 sequence (P60033 113-201 limits assumed): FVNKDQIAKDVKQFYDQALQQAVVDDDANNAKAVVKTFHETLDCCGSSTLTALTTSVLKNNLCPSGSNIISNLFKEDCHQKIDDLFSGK
Protocol: DPI analyses were performed using an AnaLight 4D workstation (Farfield Group, Manchester UK). The recombinant CD81-LEL was immobilized onto a Thiol AnaChip using Sulfo-GMBS as a cross-linker in PBS running buffer. Non-specific sites were blocked with digested casein. TRIS was used to cap the cross-linker, blocking any additional amines from covalently binding to the cross-linker on the chip surface. Ligands were prepared as a 20 mM stock solutions in DMSO. Each ligand was diluted to a final concentration of 500 μM in PBS just prior to injection (final DMSO concentration was 2.5%). PBS and DMSO mixed in the same ratio were used as a blank. Data collection and analysis were performed using the AnaLight Resolver.
Six of the more interesting ligand candidates being considered for use in creating a ligand conjugate (three calculated to bind to Site 1 and three calculated to bind to Site 2) were further tested to confirm binding using a second experimental technique, dual polarization interferometry. The results, shown in FIG. 6, confirmed that all six ligands bound to the protein. The relative rank in strength of binding of the Site 1 and 2 ligands, as determined by DPI, were also similar to the ranking obtained by SPR or calculated by AutoDock for the majority of the ligands. […] One reason for this observed difference in the DPI response may relate to conformational changes in the protein that occur when the small molecules bind. The change in radians measured using DPI when a ligand binds to a protein is known to result from a combination of two effects: 1) the resulting increase in mass/volume when the ligand binds to the protein on the surface of the chip and 2) a conformational change in the protein induced by the binding of the ligand. Molecules binding in the deeper cavity would be expected to have more and stronger contacts with the protein than ligands sitting exposed to solvent in shallow cavities or surface binding sites. […]

HCV E2 binding to CD81 = target: T3, HCV E2 binding to CD81 (Homo sapiens, UniProt P60033); test: DPI assay of ligands blocking HCV E2 protein binding to CD81; settings: Table D; E2 Protein alone gives 4.1402; reduced response = blocking
T3 sequence (P60033 113-201 limits assumed): T2 sequence (P60033 113-201 limits assumed)
Protocol: A subset of the ligands identified to bind to CD81 have been tested using Dual Polarization Interferometry (DPI) to determine if the ligands themselves are effective in blocking E2 binding to CD81. The experiments are conducted by first immobilizing one of the proteins (HCV E2 or CD81) on the chip used to perform the assay. The other protein is then introduced to the chip and the amount of binding is measured. This protein is then washed off and the protein and one of the ligands are then introduced to the chip. If the ligand blocks/interferes with the binding of the two proteins, the DPI response (measured in Radians) is reduced compared to when the protein is added alone. After the measurement is made, the protein and ligand are washed off and the next combination of the protein and a different ligand are added to the chip and the DPI response is measured. Similar experiments can be performed in which the protein is mixed with two or more ligands to see if they have a greater effect when combined.
Experiments have been conducted with either CD81 or HCV E2 immobilized on the chip. Six ligands have been tested to date.

[2] = target: T4, recombinant CD81-LEL (GST tag) (Homo sapiens, UniProt P60033); test: Surface plasmon resonance (Biacore T200) binding of ligands to immobilized recombinant CD81-LEL; settings: Table A; ligand 600 μM in PBS-0.05% Tween-80; CD81-LEL-GST on CM5 chip
T4 construct: the large extracellular loop of CD81 (CD81-LEL); gift of Dr. Shoshana Levy, Stanford University
T4 sequence (P60033 113-201 limits assumed): T2 sequence (P60033 113-201 limits assumed)
Protocol: SPR analysis was performed using a Biacore T200 workstation (GE Healthcare, NJ, USA). A recombinant form of the CD81-LEL protein with a GST tag (generously provided by Dr. Shoshana Levy, Stanford University) was used to confirm, using an established experimental technique, the binding of several ligands to the protein. Briefly, 10 μM CD81-LEL-GST diluted into 10 mM Na-Acetate buffer pH 4.5 was immobilized for 15 min at a flow speed of 5 μl/min onto a CM5 sensor chip using amine-coupling (EDC-NHS). Approximately 20,000 RU of protein were immobilized on the chip. The ligands were prepared as 600 μM solutions in PBS-0.05% Tween-80 (the running buffer) and they were introduced to the protein using a pre-programmed 3 minute association and 1 minute dissociation interval.
The binding affinity of the most tightly bound ligand in the group selected for ligand conjugate design (Ligand 1) was estimated using data collected from a series of SPR binding experiments conducted at different ligand concentrations. To obtain the kinetic and affinity data needed to estimate the Kd, the original ligand was diluted serially with running buffer to produce seven different ligand concentrations: 1024 μM, […], 256 μM, 128 μM, 64 μM, 32 μM and 0 μM. Data were fitted using a monovalent binding model.
A total of 36 ligands were tested experimentally using surface Plasmon resonance (on a Biacore T200 instrument) to identify which of the molecules calculated to bind to Sites 1 and 2 on CD81 actually bind to a recombinant form of the protein (CD81-LEL). Twenty-six of the molecules provided a positive change in response units (RU) upon introduction to a chip containing the immobilized protein (Table A), indicating the ligands bound to the protein. The measured responses for the ligands that bound varied from 2.3 to 78.4 RU. Those ligands providing the largest responses tended to be molecules that were calculated to bind more deeply inside cavities in Site 1 (ligands 30930, 98026, 7436, 5069), Site 2 (ligands 127947, 38743) or Site 4 (ligands 78623, 16631).
Experimental analysis of ligand binding to recombinant CD81 LEL. Forty ligands calculated by AutoDock to bind to sites 1 and 2 on CD81-LEL were tested experimentally using surface Plasmon resonance as described in the Materials and Methods section. Ligand code numbers are those assigned by the National Cancer Institute. […] Because the binding experiments were performed by passing the same concentration of each ligand sequentially across the same protein coated chip using both techniques, the magnitude of the responses can be used to provide an approximate ranking of binding strength.

[3] = target: recombinant CD81-LEL protein (large extracellular loop of human CD81) with a GST tag (human) (UniProt P60033); test: DPI, E2 protein added to immobilised CD81 together with small molecules 93033 and 165665
[4] = target: recombinant CD81-LEL protein (large extracellular loop of human CD81) with a GST tag (human) (UniProt P60033); test: DPI, E2 protein added to immobilised CD81 together with small molecules 93033 and 16631
[5] = target: recombinant CD81-LEL protein (large extracellular loop of human CD81) with a GST tag (human) (UniProt P60033); test: DPI, E2 protein added to immobilised CD81 together with small molecule 93033
[6] = target: recombinant CD81-LEL protein (large extracellular loop of human CD81) with a GST tag (human) (UniProt P60033); test: DPI, E2 protein added to immobilised CD81 together with small molecules 689002 and 93033
[7] = target: recombinant CD81-LEL protein (large extracellular loop of human CD81) with a GST tag (human) (UniProt P60033); test: DPI, E2 protein alone added to immobilised CD81
[8] = target: recombinant CD81-LEL protein (large extracellular loop of human CD81) with a GST tag (human) (UniProt P60033); test: DPI, E2 protein added to immobilised CD81 together with small molecule 165665
[9] = target: recombinant CD81-LEL protein (large extracellular loop of human CD81) with a GST tag (human) (UniProt P60033); test: DPI, E2 protein added to immobilised CD81 together with small molecules 30930 and 68365 (so in the source)
[10] = target: recombinant CD81-LEL protein (large extracellular loop of human CD81) with a GST tag (human) (UniProt P60033); test: DPI, E2 protein added to immobilised CD81 together with small molecule 30930
[11] = target: recombinant CD81-LEL protein (large extracellular loop of human CD81) with a GST tag (human) (UniProt P60033); test: DPI, E2 protein added to immobilised CD81 together with small molecule 689002

Compound | Inhibition of JS-81 Binding (%) ([1]; 50 μM ligand) | Inhibition of JS-81 Binding (%) ([1]; 100 μM ligand) | Inhibition of JS-81 Binding (%) ([1]; 400 μM ligand) | DPI Binding Response (Radians), molecule added alone to CD81 (recombinant CD81-LEL) | DPI Binding Response (Radians), E2 Protein added to CD81 together with ligand(s) (HCV E2 binding to CD81) | SPR Response Units [2] | DPI Response (Radians), ligand added to CD81 protein (recombinant CD81-LEL; Table B and b111, ligand 500 μM in PBS, 2.5% DMSO) | DPI Binding Response (Radians) [3] | DPI Binding Response (Radians) [4] | DPI Binding Response (Radians) [5] | DPI Binding Response (Radians) [6] | DPI Binding Response (Radians) [7] | DPI Binding Response (Radians) [8] | DPI Binding Response (Radians) [9] | DPI Binding Response (Radians) [10] | DPI Binding Response (Radians) [11]
O=C(O)c1cc2cc(OCc3ccccc3)ccc2[nH]1 [Ligand 30930] | 0% | 0% | 14% | 1.102 Radians | 2.5262 Radians | 67.7 RU | – | – | – | – | – | – | – | – | – | –
O=C(Cn1ccc(=O)[nH]c1=O)Nc1ccc(C(=O)O)c(O)c1 [Ligand 93033] | 0% | 0% | 16% | 0.7245 Radians | 0.2546 Radians | 16.9 RU | 0.7245 Radians | – | – | – | – | – | – | – | – | –
HCV E2 protein (ligand) | – | – | – | – | – | – | – | 0.765 Radians | 0.531 Radians | 0.255 Radians | 0.401 Radians | 4.14 Radians | -0.0047 Radians | 1.45 Radians | 2.53 Radians | 2.7 Radians
